Experimental data from patent publication US20060264414A1, “Fluorous 2,2'-bipyridines and fluorinated biphasic sysems for ligand design” (The Board of Regents, University and Community College …, priority 2005, published 2006).
Where two headings read alike, the source gives them in different places. Marks after values point to notes of the source that are not given here.

Tests used:
[1] = value from ref. 13; cited from earlier work
[2] = Fluorous partition coefficient, CF3C6F11/toluene, GLC method; assay type: physicochemical; conditions: 1:1 v/v perfluoromethylcyclohexane and toluene
Excerpt: Fluorous partition coefficients (FPCs) were obtained for 1-4 for a 1:1 v/v biphasic mixture of “fluorous” solvent perfluoromethylcyclohexane, CF3C6F11 and toluene.

[3] = Cyclic voltammetry reduction potentials; assay type: physicochemical; conditions: THF; for ΔEp: scan rate 10 V/sec, TBAPF6; for E1/2: vs. SCE, 10 μm Pt ultramicroelectrode
Excerpt: THF was found suitable for this study as 1-3 have sufficient solubility and the electrochemical potential window (+1.2 V to −3 V vs. SCE) extends to the potential range of interest.

[4] = in DMF, known values; cited from earlier work
[5] = test system: Breast Cancer Cells (DC4 and DB-46); assay: Survival studies (Clonogenic Assay); assay type: cell-based; conditions: 10 micromolar Pt agent, DC4 and DB-46 cells
Excerpt: Plots are appended to this document that provide viable cells vs. concentration of Pt agent.

Molecule	FPC = Cbpy(CF3C6F11)/Cbpy(toluene) [2]	ΔEp [3] [mV]	E1/2 [3] [V]	reduction potential [4] [V]	other results
FC(F)(F)C(F)(F)C(F)(F)C(F)(F)C(F)(F)C(F)(F)C(F)(F)C(F)(F)CCCCc1ccnc(-c2cc(CCCCC(F)(F)C(F)(F)C(F)(F)C(F)(F)C(F)(F)C(F)(F)C(F)(F)C(F)(F)F)ccn2)c1 [—(CH2)4Rf8, 4,4′-di-[(CH2)4(CF2)7CF3]-2,2′-bipyridine]	–	–	–	–	FPC = Cbpy(CF3C6F11)/Cbpy(toluene) [1]: 0.67^c; fi = fluorophilicity = ln[FPC] [1]: −0.40^c
CCCCCCCCCc1ccnc(-c2cc(CCCCCCCCC)ccn2)c1 [—(CH2)8CH3]	no compound in the CF3C6F11 layer	299	−2.501	–	–
Cc1ccnc(-c2cc(C)ccn2)c1 [—CH3, 4,4′-dimethyl-2,2′-bipyridine]	no compound in the CF3C6F11 layer	253	−2.493	−2.68	–
c1ccc(-c2ccccn2)nc1 [—H, 2,2′-bipyridine]	–	–	–	−2.60	–
[4,4′-Bis(4,4,4-trifluorobutyl)-2,2′-bipyridine]PtCl2 [Complex 1]	–	–	–	–	colonies surviving / survival [5]: around 2%
FC(F)(F)C(F)(F)C(F)(F)C(F)(F)C(F)(F)C(F)(F)C(F)(F)C(F)(F)C(F)(F)C(F)(F)CCCc1ccnc(-c2cc(CCCC(F)(F)C(F)(F)C(F)(F)C(F)(F)C(F)(F)C(F)(F)C(F)(F)C(F)(F)C(F)(F)C(F)(F)F)ccn2)c1 [Ligand 4]	11	–	–	–	fi = fluorophilicity = ln[FPC] [2]: +2.4
